In ChEMBL document CHEMBL3885881, “DrugMatrix”:

Species: Rattus norvegicus
Assay: DrugMatrix - Regimen: Daily Repeat
Type: toxicity, organism-based, Sprague-Dawley
Set-up: regimen Daily Repeat, gender Male, age 6-8 weeks
Details: in vivo, po, route oral GAVAGE, […]; for ABSOLUTE BASOPHIL / ABSOLUTE EOSINOPHIL / ABSOLUTE LYMPHOCYTE / ABSOLUTE MONOCYTE / ABSOLUTE SEGMENTED NEUTROPHIL / BASOPHIL / EOSINOPHIL / ERYTHROCYTE COUNT / HEMATOCRIT / HEMOGLOBIN / LEUKOCYTE COUNT / LYMPHOCYTE / MEAN CORPUSCULAR HEMOGLOBIN / MEAN CORPUSCULAR HEMOGLOBIN CONCENTRATION / MONOCYTE / NEUTROPHIL / NUCLEATED RED BLOOD CELLS / PLATELET COUNT: tissue Blood; for ALANINE AMINOTRANSFERASE / ALBUMIN / ALKALINE PHOSPHATASE / ASPARTATE AMINOTRANSFERASE / BLOOD UREA NITROGEN / CARBON DIOXIDE / CHLORIDE / CHOLESTEROL / CREATINE PHOSPHOKINASE / CREATININE / GLUCOSE / LACTATE DEHYDROGENASE / LIPASE / PHOSPHORUS / POTASSIUM / SODIUM / TOTAL BILIRUBIN / TOTAL PROTEIN / URIC ACID: tissue Plasma
[1] = 0 mg/kg, 72 h, dose level Control, time 3 day
[2] = 0 mg/kg, 120 h, dose level Control, time 5 day
[3] = 54 mg/kg, 72 h, dose level Low, time 3 day
[4] = 54 mg/kg, 120 h, dose level Low, time 5 day

## CC(C)Cc1ccc(C(C)C(=O)O)cc1 (configuration not stated) [IBUPROFEN]
[1]
  ABSOLUTE BASOPHIL: 0 CELLS/uL
  ABSOLUTE EOSINOPHIL: 0 CELLS/uL
  ABSOLUTE LYMPHOCYTE: 7601 CELLS/uL
  ABSOLUTE MONOCYTE: 354.33 CELLS/uL
  ABSOLUTE SEGMENTED NEUTROPHIL: 744.67 CELLS/uL
  BASOPHIL: 0%
  EOSINOPHIL: 0%
  ERYTHROCYTE COUNT: 5.03 x10E6/uL
  HEMATOCRIT: 33.7%
  HEMOGLOBIN: 13.43 G/DL
  LEUKOCYTE COUNT: 8.7 x10E3/uL
  LYMPHOCYTE: 86.33%
  MEAN CORPUSCULAR HEMOGLOBIN: 26.7 pg
  MEAN CORPUSCULAR HEMOGLOBIN CONCENTRATION: 39.83 G/DL
  MONOCYTE: 4.67%
  NEUTROPHIL: 9%
  NUCLEATED RED BLOOD CELLS: 0 /100WBC
  PLATELET COUNT: 1151 x10E3/uL
  ALANINE AMINOTRANSFERASE: 97.67 u/L
  ALBUMIN: 4.07 G/DL
  ALKALINE PHOSPHATASE: 607.67 u/L
  ASPARTATE AMINOTRANSFERASE: 101 u/L
  BLOOD UREA NITROGEN: 13.33 mg/dL
  CARBON DIOXIDE: 36 mmol/L
  CHLORIDE: 99.67 MEQ/L
  CHOLESTEROL: 75.67 mg/dL
  CREATINE PHOSPHOKINASE: 279.67 u/L
  CREATININE: 0.16 mg/dL
  GLUCOSE: 164 mg/dL
  LACTATE DEHYDROGENASE: 115 u/L
  LIPASE: 12.67 u/L
  PHOSPHORUS: 8.77 mg/dL
  POTASSIUM: 5.79 MEQ/L
  SODIUM: 142.83 MEQ/L
  TOTAL BILIRUBIN: 0.27 mg/dL
  TOTAL PROTEIN: 5.8 G/DL
  URIC ACID: 0.67 mg/dL
[2]
  ABSOLUTE BASOPHIL: 0 CELLS/uL
  ABSOLUTE EOSINOPHIL: 0 CELLS/uL
  ABSOLUTE LYMPHOCYTE: 4426.33 CELLS/uL
  ABSOLUTE MONOCYTE: 102.67 CELLS/uL
  ABSOLUTE SEGMENTED NEUTROPHIL: 337.67 CELLS/uL
  BASOPHIL: 0%
  EOSINOPHIL: 0%
  ERYTHROCYTE COUNT: 5.31 x10E6/uL
  HEMATOCRIT: 32.5%
  HEMOGLOBIN: 13.17 G/DL
  LEUKOCYTE COUNT: 4.87 x10E3/uL
  LYMPHOCYTE: 90.33%
  MEAN CORPUSCULAR HEMOGLOBIN: 24.93 pg
  MEAN CORPUSCULAR HEMOGLOBIN CONCENTRATION: 40.67 G/DL
  MONOCYTE: 2.33%
  NEUTROPHIL: 7.33%
  NUCLEATED RED BLOOD CELLS: 0.33 /100WBC
  PLATELET COUNT: 848.33 x10E3/uL
  ALANINE AMINOTRANSFERASE: 59.67 u/L
  ALBUMIN: 3.87 G/DL
  ALKALINE PHOSPHATASE: 452 u/L
  ASPARTATE AMINOTRANSFERASE: 81.33 u/L
  BLOOD UREA NITROGEN: 13.67 mg/dL
  CARBON DIOXIDE: 26.33 mmol/L
  CHLORIDE: 103.67 MEQ/L
  CHOLESTEROL: 65.67 mg/dL
  CREATINE PHOSPHOKINASE: 355.33 u/L
  CREATININE: 0.14 mg/dL
  GLUCOSE: 171.33 mg/dL
  LACTATE DEHYDROGENASE: 118 u/L
  LIPASE: 11.33 u/L
  PHOSPHORUS: 11.13 mg/dL
  POTASSIUM: 5.18 MEQ/L
  SODIUM: 143.17 MEQ/L
  TOTAL BILIRUBIN: 0.2 mg/dL
  TOTAL PROTEIN: 5.87 G/DL
  URIC ACID: 0.63 mg/dL
[3]
  ABSOLUTE BASOPHIL: 0 CELLS/uL
  ABSOLUTE EOSINOPHIL: 0 CELLS/uL
  ABSOLUTE LYMPHOCYTE: 9143 CELLS/uL
  ABSOLUTE MONOCYTE: 146.33 CELLS/uL
  ABSOLUTE SEGMENTED NEUTROPHIL: 1110.67 CELLS/uL
  BASOPHIL: 0%
  EOSINOPHIL: 0%
  ERYTHROCYTE COUNT: 5.12 x10E6/uL
  HEMATOCRIT: 32.67%
  HEMOGLOBIN: 12.97 G/DL
  LEUKOCYTE COUNT: 10.4 x10E3/uL
  LYMPHOCYTE: 88%
  MEAN CORPUSCULAR HEMOGLOBIN: 25.37 pg
  MEAN CORPUSCULAR HEMOGLOBIN CONCENTRATION: 39.7 G/DL
  MONOCYTE: 1.33%
  NEUTROPHIL: 10.67%
  NUCLEATED RED BLOOD CELLS: 0 /100WBC
  PLATELET COUNT: 1145.67 x10E3/uL
  ALANINE AMINOTRANSFERASE: 89.33 u/L
  ALBUMIN: 4 G/DL
  ALKALINE PHOSPHATASE: 470.33 u/L
  ASPARTATE AMINOTRANSFERASE: 89.33 u/L
  BLOOD UREA NITROGEN: 14.33 mg/dL
  CARBON DIOXIDE: 40.33 mmol/L
  CHLORIDE: 98 MEQ/L
  CHOLESTEROL: 76.67 mg/dL
  CREATINE PHOSPHOKINASE: 208.67 u/L
  CREATININE: 0.13 mg/dL
  GLUCOSE: 160.67 mg/dL
  LACTATE DEHYDROGENASE: 55 u/L
  LIPASE: 10.67 u/L
  PHOSPHORUS: 9.53 mg/dL
  POTASSIUM: 5.26 MEQ/L
  SODIUM: 143.43 MEQ/L
  TOTAL BILIRUBIN: 0.2 mg/dL
  TOTAL PROTEIN: 5.9 G/DL
  URIC ACID: 0.37 mg/dL
[4]
  ABSOLUTE BASOPHIL: 0 CELLS/uL
  ABSOLUTE EOSINOPHIL: 0 CELLS/uL
  ABSOLUTE LYMPHOCYTE: 9058.67 CELLS/uL
  ABSOLUTE MONOCYTE: 185 CELLS/uL
  ABSOLUTE SEGMENTED NEUTROPHIL: 289.67 CELLS/uL
  BASOPHIL: 0%
  EOSINOPHIL: 0%
  ERYTHROCYTE COUNT: 5.22 x10E6/uL
  HEMATOCRIT: 32.87%
  HEMOGLOBIN: 13 G/DL
  LEUKOCYTE COUNT: 9.53 x10E3/uL
  LYMPHOCYTE: 95.33%
  MEAN CORPUSCULAR HEMOGLOBIN: 24.87 pg
  MEAN CORPUSCULAR HEMOGLOBIN CONCENTRATION: 39.57 G/DL
  MONOCYTE: 1.67%
  NEUTROPHIL: 3%
  NUCLEATED RED BLOOD CELLS: 0 /100WBC
  PLATELET COUNT: 1110.33 x10E3/uL
  ALANINE AMINOTRANSFERASE: 65.67 u/L
  ALBUMIN: 3.9 G/DL
  ALKALINE PHOSPHATASE: 301 u/L
  ASPARTATE AMINOTRANSFERASE: 84.67 u/L
  BLOOD UREA NITROGEN: 12.67 mg/dL
  CARBON DIOXIDE: 28.67 mmol/L
  CHLORIDE: 103.67 MEQ/L
  CHOLESTEROL: 69.67 mg/dL
  CREATINE PHOSPHOKINASE: 213.67 u/L
  CREATININE: 0.23 mg/dL
  GLUCOSE: 164 mg/dL
  LIPASE: 11 u/L
  PHOSPHORUS: 11.1 mg/dL
  POTASSIUM: 5.49 MEQ/L
  SODIUM: 144.2 MEQ/L
  TOTAL BILIRUBIN: 0.13 mg/dL
  TOTAL PROTEIN: 5.87 G/DL
  URIC ACID: 0.57 mg/dL
